# According to patent publication US20060100431A1, “Biologically active compounds” (Amura Therapeutics Limited, priority 2002, published 2006):
# Biological target: Wild-type cruzipain (Trypanosoma cruzi, UniProt P25779)
# Assay: Trypanosoma cruzi cruzipain peptidase activity assay (Ki)
# Type: biochemical
# Conditions: read-out: Ki, inhibitors of cruzain and cruzipains
# Protocol: Unless otherwise stated, all general chemicals and biochemicals were purchased from either the Sigma Chemical Company, Poole, Dorset, U.K or from Fisher Scientific UK, Loughborough, Leicestershire, U.K. Absorbance assays were carried out in flat-bottomed 96-well plates (Spectra; Greiner Bio-One Ltd., Stonehouse, Gloucestershire, U.K.) using a SpectraMax PLUS384 plate reader (Molecular Devices, Crawley, U.K.). Fluorescence high throughput assays were carried out in either 384-well microtitre plates (Corning Costar 3705 plates, Fisher Scientific) or 96-well ‘U’ bottomed Microfluor W1 microtitre plates (Thermo Labsystems, Ashford, Middlesex, U.K.). Fluorescence assays were monitored using a SpectraMax Gemini fluorescence plate reader (Molecular Devices). For substrates employing either a 7-amino-4-methylcoumarin (AMC) or a 7-amino-4-trifluoromethylcoumarin (AFC) fluorophore, assays were monitored at an excitation wavelength of 365 nm and an emission wavelength of 450 nm and the fluorescence plate reader calibrated with AMC. For substrates employing a 3-amino-benzoyl (Abz) fluorophore, assays were monitored at an excitation wavelength of 310 nm and an emission wavelength of 445 nm; the fluorescence plate reader calibrated with 3-amino-benzamide (Fluka). Unless otherwise indicated, all the peptidase substrates were purchased from Bachem UK, St Helens, Merseyside, UK. Substrates utilizing fluorescence resonance energy transfer methodology (i.e. FRET-based substrates) were synthesized at Incenta Limited using published methods (Atherton & Sheppard, Solid Phase Peptide Synthesis, IRL Press, Oxford, U.K, 1989) and employed Abz (2-aminobenzoyl) as the fluorescence donor and 3-nitro-tyrosine [Tyr(NO2)] as the fluorescence quencher (Meldal, M. and Breddam, K., Anal. Biochem, 195, 141-147, 1991). Hydroxyethylpiperazine ethanesulfonate (HEPES), tris-hydroxylmethyl aminomethane (tris) base, bis-tris-propane and all the biological detergents (e.g. CHAPS, zwittergents, etc.) were purchased from CN Biosciences UK, Beeston, Nottinghamshire, U.K. Glycerol was purchased from Amersham Pharmacia Biotech, Little Chalfont, Buckinghamshire, U.K. Stock solutions of substrate or inhibitor were made up to 10 mM in 100% dimethylsulfoxide (DMSO) (Rathburns, Glasgow, U.K.) and diluted as appropriately required. In all cases the DMSO concentration in the assays was maintained at less than 1% (vol./vol.).
# Assay protocols were based on literature precedent (Table 4; Barrett, A. J., Rawlings, N. D. and Woessner, J. F., 1998, Handbook of Proteolytic Enzymes, Academic Press, London and references therein) and modified as required to suit local assay protocols. Enzyme was added as required to initiate the reaction and the activity, as judged by the change in fluorescence upon conversion of substrate to product, was monitored over time. All assays were carried out at 25±1° C.
# Wild-type cruzipain, derived from Trypanosoma cruzi Dm28 epimastigotes, was obtained from Dr. Julio Scharfstein (Instituto de Biofisica Carlos Chagas Filho, Universidade Federal do Rio de Janeiro, Rio de Janeiro, Brazil). Activity assays were carried out in 100 mM sodium phosphate, pH 6.75 containing 1 mM EDTA and 10 mM L-cysteine using 2.5 nM enzyme. […] The rate of conversion of substrate to product was derived from the slope of the increase in fluorescence monitored continuously over time.
# The apparent inhibition constant (Ki) for each compound was determined on the basis that inhibition was reversible and occurred by a pure-competitive mechanism. The Ki values were calculated, from the dependence of enzyme activity as a function of inhibitor concentration, by direct regression analysis (Prism v 3.02) using Equation 2 (Cornish-Bowden, A., 1995.). [formula]
# Sequence of Wild-type cruzipain (P25779 whole entry): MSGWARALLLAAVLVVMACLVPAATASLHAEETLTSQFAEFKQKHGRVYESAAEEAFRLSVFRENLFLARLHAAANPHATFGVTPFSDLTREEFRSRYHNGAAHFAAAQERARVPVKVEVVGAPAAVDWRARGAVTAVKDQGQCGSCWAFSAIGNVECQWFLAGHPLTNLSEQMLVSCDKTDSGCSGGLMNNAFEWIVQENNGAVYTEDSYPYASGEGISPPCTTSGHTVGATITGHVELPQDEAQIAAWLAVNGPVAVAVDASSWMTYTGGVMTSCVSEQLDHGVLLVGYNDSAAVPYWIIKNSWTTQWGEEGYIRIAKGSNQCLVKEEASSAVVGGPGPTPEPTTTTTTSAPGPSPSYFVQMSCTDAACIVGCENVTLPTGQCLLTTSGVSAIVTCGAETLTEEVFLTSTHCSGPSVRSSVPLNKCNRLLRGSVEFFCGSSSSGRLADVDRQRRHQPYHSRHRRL
row,Structure (SMILES),Ki
1,"CC(C)C[C@H](NC(=O)c1ccc(N(C)C)cc1)C(=O)N1CC[C@@H]2[C@H]1C(=O)CN2C(=O)[C@@H](N)C1CCCCC1 [Example 226, (3aR,6aS)-N-{(1S)-1-[4-((2S)-2-Amino-2-cyclohexyl-acetyl)-6-oxo-hexahydro-pyrrolo[3,2-b]pyrrole-1-carbonyl]-3-methyl-butyl}-4-dimethylamino-benzamide]",< 5 µM
2,"CC(C)C[C@H](NC(=O)c1ccc(N(C)C)cc1)C(=O)N1CC[C@@H]2[C@H]1C(=O)CN2C(=O)[C@@H]1C[C@@H](O)CN1 [Example 218, (3aR,6aS)-4-Dimethylamino-N-{(1S)-1-[4-((2S,4R)-4-hydroxy-pyrrolidine-2-carbonyl)-6-oxo-hexahydro-pyrrolo[3,2-b]pyrrole-1-carbonyl]-3-methyl-butyl}-benzamide]",< 5 µM
3,"COC(=O)NCC(=O)N1CC(=O)[C@@H]2[C@H]1CCN2C(=O)[C@H](CC(C)C)NC(=O)c1ccc(N(C)C)cc1 [Example 183, (3aS,6aR)-(2-{4-[(2S)-2-(4-Dimethylamino-benzoylamino)-4-methyl-pentanoyl]-3-oxo-hexahydro-pyrrolo[3,2-b]pyrrole-1-yl}-2-oxo-ethyl)-carbamic acid methyl ester]",< 5 µM
4,"CNCC(=O)N1CC(=O)[C@@H]2[C@H]1CCN2C(=O)[C@H](CC(C)C)NC(=O)c1ccc(N(C)C)cc1 [Example 200, (3aR,6aS)-4-Dimethylamino-N-{(1S)-3-methyl-1-[4-(2-methylamino-acetyl)-6-oxo-hexahydro-pyrrolo[3,2-b]pyrrole-1-carbonyl]-butyl}-benzamide]",< 5 µM
5,"CC(C)C[C@H](NC(=O)c1ccc(N(C)C)cc1)C(=O)N1CC[C@@H]2[C@H]1C(=O)CN2C(=O)[C@H](C)N [Example 162, (3aR,6aS)-N-{(1S)-1-[4-((2S)-2-Amino-propionyl)-6-oxo-hexahydro-pyrrolo[3,2-b]pyrrole-1-carbonyl]-3-methyl-butyl}-4-dimethylamino-benzamide]",< 5 µM
6,"CC(C)C[C@H](NC(=O)c1ccc(C(C)(C)C)cc1)C(=O)N1CC[C@@H]2[C@H]1C(=O)CN2C(=O)c1ccccc1Cc1ccccc1 [Example 36, (3aR,6aS)-N-{(1S)-1-[4-(2-Benzyl-benzoyl)-6-oxo-hexahydro-pyrrolo[3,2-b]pyrrole-1-carbonyl]-3-methyl-butyl}-4-tert-butyl-benzamide]",< 5 µM
7,"CC(C)C[C@H](NC(=O)c1ccc(C(C)(C)C)cc1)C(=O)N1CC[C@@H]2[C@H]1C(=O)CN2C(=O)c1ccc2c(c1)OCCO2 [Example 30, (3aR,6aS)-4-tert-Butyl-N-{(1S)-1-[4-(2,3-dihydro-benzo[1,4]dioxine-6-carbonyl)-6-oxo-hexahydro-pyrrolo[3,2-b]pyrrole-1-carbonyl]-3-methyl-butyl}-benzamide]",< 5 µM
8,"CC(C)C[C@H](NC(=O)c1ccc(N(C)C)cc1)C(=O)N1CC[C@@H]2[C@H]1C(=O)CN2C(=O)[C@@H]1CCCCN1 [Example 217, (3aR,6aS)-4-Dimethylamino-N-{(1S)-3-methyl-1-[6-oxo-4-((2S)-piperidine-2-carbonyl)-hexahydro-pyrrolo[3,2-b]pyrrole-1-carbonyl]-butyl}-benzamide]",< 5 µM
9,"CC(C)C[C@H](NC(=O)c1ccc(N(C)C)cc1)C(=O)N1CC[C@@H]2[C@H]1C(=O)CN2C(=O)[C@@H](N)C(C)C [Example 205, (3aR,6aS)-N-{(1S)-1-[4-((2S)-2-Amino-3-methyl-butyryl)-6-oxo-hexahydro-pyrrolo[3,2-b]pyrrole-1-carbonyl]-3-methyl-butyl}-4-dimethylamino-benzamide]",< 5 µM
10,"CC(C)C[C@H](NC(=O)c1ccc(N(C)C)cc1)C(=O)N1CC[C@@H]2[C@H]1C(=O)CN2C(=O)[C@@H](N)CO [Example 206, (3aR,6aS)-N-{(1S)-1-[((2S)-2-Amino-3-hydroxy-propionyl)-6-oxo-hexahydro-pyrrolo[3,2-b]pyrrole-1-carbonyl]-3-methyl-butyl}-4-dimethylamino-benzamide]",< 5 µM
11,"CC[C@H](N)C(=O)N1CC(=O)[C@@H]2[C@H]1CCN2C(=O)[C@H](CC(C)C)NC(=O)c1ccc(N(C)C)cc1 [Example 203, (3aR,6aS)-N-{(1S)-1-[4-((2S)-2-Amino-butyryl)-6-oxo-hexahydro-pyrrolo[3,2-b]pyrrole-1-carbonyl]-3-methyl-butyl}-4-dimethylamino-benzamide]",< 5 µM
12,"CC(C)C[C@H](NC(=O)c1ccc(N(C)C)cc1)C(=O)N1CC[C@@H]2[C@H]1C(=O)CN2C(=O)c1ccccc1OC(F)(F)F [Example 168, (3aR,6aS)-4-Dimethylamino-N-{(1S)-3-methyl-1-[6-oxo-4-(2-trifluoromethoxy-benzoyl)-hexahydro-pyrrolo[3,2-b]pyrrole-1-carbonyl]-butyl}-benzamide]",< 5 µM
13,CC(C)C[C@H](NC(=O)c1ccc(N(C)C)cc1)C(=O)N1CC[C@@H]2[C@H]1C(=O)CN2C(=O)c1cccc[n+]1[O-] [Example 80],< 5 µM
14,"CC(C)C[C@H](NC(=O)c1ccc(N(C)C)cc1)C(=O)N1CC[C@@H]2[C@H]1C(=O)CN2C(=O)C1CCC1 [Example 133, (3aR,6aS)-N-[(1S)-1-(4-Cyclobutanecarbonyl-6-oxo-hexahydro-pyrrolo[3,2-b]pyrrole-1-carbonyl)-3-methyl-butyl]-4-dimethylamino-benzamide]",< 5 µM

# Continued, values first:
row,Ki,Structure (SMILES)
1,< 5 µM,"O=C(N[C@@H](Cc1ccc(O)cc1)C(=O)N1CC[C@@H]2[C@H]1C(=O)CN2C(=O)c1cccs1)c1cccc(Br)c1 [Example 324, (3aR,6aS)-3-Bromo-N-{(1S)-1-(4-hydroxy-benzyl)-2-oxo-2-[6-oxo-4-(thiophene-2-carbonyl)-hexahydro-pyrrolo[3,2-b]pyrrol-1-yl]-ethyl}-benzamide]"
2,< 5 µM,"CC(C)C[C@H](NC(=O)c1ccc(N(C)C)cc1)C(=O)N1CC[C@@H]2[C@H]1C(=O)CN2C(=O)CN(C)C [Example 227, (3aR,6aS)-4-Dimethylamino-N-{(1S)-1-[4-(2-dimethylamino-acetyl)-6-oxo-hexahydro-pyrrolo[3,2-b]pyrrole-1-carbonyl]-3-methyl-butyl}-benzamide]"
3,< 5 µM,"Cc1ccc(C(=O)N[C@@H](Cc2ccc(O)cc2)C(=O)N2CC[C@@H]3[C@H]2C(=O)CN3C(=O)c2ccccc2)cc1Br [Example 337, (3aR,6aS)-N-[(1S)-2-(4-Benzoyl-6-oxo-hexahydro-pyrrolo[3,2-b]pyrrol-1-yl)-1-(4-hydroxy-benzyl)-2-oxo-ethyl)-3-bromo-4-methyl-benzamide]"
4,< 5 µM,"CN(C)c1ccc(C(=O)N[C@@H](Cc2ccc(O)cc2)C(=O)N2CC[C@@H]3[C@H]2C(=O)CN3C(=O)c2cccc([N+](=O)[O-])c2)cc1 [Example 321, (3aR,6aS)-4-Dimethylamino-N-{(1S)-1-(4-hydroxy-benzyl)-2-[4-(3-nitro-benzoyl)-6-oxo-hexahydro-pyrrolo[3,2-b]pyrrole-1-yl]-2-oxo-ethyl}-benzamide]"
5,< 5 µM,CC(C)C[C@H](NC(=O)c1ccc(N(C)C)cc1)C(=O)N1CC[C@@H]2[C@H]1C(=O)CN2C(=O)CC1CCNCC1 [Example 240]
6,< 5 µM,CN(C)c1ccc(C(=O)N[C@@H](Cc2ccc(O)cc2)C(=O)N2CC[C@@H]3[C@H]2C(=O)CN3C(=O)c2cccc(F)c2)cc1 [Example 322]
7,< 5 µM,"O=C(N[C@@H](Cc1ccc(O)cc1)C(=O)N1CC[C@@H]2[C@H]1C(=O)CN2C(=O)c1ccccc1)c1cccnc1 [Example 336, (3aR,6aS)-N-[(1S)-2-(4-Benzoyl-6-oxo-hexahydro-pyrrolo[3,2-b]pyrrol-1-yl)-1-(4-hydroxy-benzyl)-2-oxo-ethyl]-nicotinamide]"
8,< 5 µM,"O=C(N[C@@H](Cc1ccc(O)cc1)C(=O)N1CC[C@@H]2[C@H]1C(=O)CN2C(=O)c1ccc2ccccc2c1)c1cccc2ccccc12 [Example 302, (3aR,6aS)-Naphthalene-1-carboxylic acid {(1S)-1-(4-hydroxy-benzyl)-2-[4-(naphthalene-2-carbonyl)-6-oxo-hexahydro-pyrrolo[3,2-b]pyrrol-1-yl]-2-oxo-ethyl}-amide]"
